Measurements taken from patent US4749703A, “Calcium antagonist piperazine derivatives, and compositions therefor” (Dainippon Pharmaceutical Co., Ltd., priority 1984, dated 1988).
Structures can show the parent of a compound that is named as a salt.

What was measured:
[1] = tested on: vasopressin-induced ST depression; assay: Preventive effect on vasopressin-induced ST depression (experimental model of angina pectoris); assay type: in vivo, Male Donryu strain rats; parameters: key to Preventive effect on ST depression, 7 hours / Preventive effect on ST depression, 1 hour / Preventive effect on ST depression, 5 hours / Preventive effect on ST depression, 3 hours: +: Significantly different from vehicle control (P < 0.05); -: No significant difference; settings: for Preventive effect on ST depression, 1 hour: 1 hour following administration; for Preventive effect on ST depression, 3 hours: 3 hours following administration; for Preventive effect on ST depression, 5 hours: 5 hours following administration; for Preventive effect on ST depression, 7 hours: 7 hours following administration; for preventive effect on the ST depression (in words): p.o., compared with diltiazem hydrochloride
Experimental: (1) Preventive effect on vasopressin-induced ST depression (effect in experimental model of angina pectoris)
The test was carried out according to the method of Hatano et al. [cf. Pharmacometrics, 19, 311-317 (1980)].
Male Donryu strain rats, weighing 130-180 g, were anesthetized with 60 mg/kg (i.p.) of sodium pentobarbital. Lead II electrocardiogram was recorded. The ST depression produced with 0.2 IU/kg (i.v.) of vasopressin was recorded at intervals of a given period for 5 minutes after the administration of vasopressin. The test compound, suspended in 0.5% aqueous tragacanth solution, was administered orally 1, 3, 5 and 7 hours before the administration of vasopressin. The amplitude of ST depression was measured by means of the computer, and the data were analyzed statistically by two-dimensional analysis between the control group and the treated group to evaluate the effect of the test compound. Each group of 5 rats was used for each dose of the test compound.

[2] = tested on: methacholine-induced ST elevation; assay: Preventive effect on methacholine-induced ST elevation (experimental model of variant angina); assay type: in vivo, Male SD strain rats; settings: i.v.; for ST elevation, administn. of M (8 μg) after administn. of test compd. (at peak time): ± S.E.; for preventive effect on the ST elevation (in words): compared with diltiazem hydrochloride
Experimental: (2) Preventive effect on methacholine-induced ST elevation (effect in experimental model of variant angina)
The test was carried out according to the method of Sakai et al. [cf. J. Pharmacol. Methods, 5, 325-336 (1981)].
Male SD strain rats, weighing about 500 g, were anesthetized with 60 mg/kg (i.p.) of sodium pentobarbital. Lead II electrocardiogram was recorded. The ST elevation was produced with 8.0 μg of metacholine given into the coronary […] through the cannula inserted from the right carotid artery. The test compound, dissolved in 5% ethanol-physiological saline solution, was administered intravenously. The amplitude of ST elevation was measured by means of the computer 0.5, 5 and 10 minutes after the administration of the test compound and afterward at intervals of 10-minute. The effect of the test compound was evaluated by comparing the amplitude of ST elevation after administration of the test compound with that before the administration. Each group of 5 rats was used for each dose of the test compound.
The abbreviation M in the table represents metacholine.

in vivo = settings: mouse, mortality for 7 days
Description: STD-ddY strain mice were used in groups of 10 animals each.

[3] = tested on: spontaneously hypertensive rats (SHR); assay: Antihypertensive activity in spontaneously hypertensive rats (SHR); assay type: in vivo, male SHR (Okamoto and Aoki strain) rats; settings: for Peak time (time of maximum hypotensive effect): p.o.; for duration of antihypertensive activity (in words): compared with commercially available calcium antagonists
Experimental: The animals used were male SHR [Okamoto and Aoki strain; cf. Jap. Circul. […] Proc. Soc. […] The other end of the cannula was exposed through the skin on the back of the neck and fixed. After 1 to 4 days, the aortic cannula was connected to a pressure transducer (produced by Nihon Koden Co., Ltd., Japan; Model MP-4T), and conscious blood pressure was measured by direct method. On the day of the experiment, the blood pressure was measured for one hour prior to dosing. The test compound, suspended in 0.5% aqueous tragacanth solution, was administered orally at a volume of 3.0 ml/kg and the blood pressure was measured continuously for 5 hours.
The changes of blood pressure are expressed by the mean pressure calculated from the values of systolic and diastolic pressure.

[4] = 0.3 mg/kg, * P < 0.05, ** P < 0.01

Compound | Preventive effect on ST depression, 1 hour ([1]; 3 mg/kg p.o.) | Preventive effect on ST depression, 3 hours ([1]; 3 mg/kg p.o.) | Preventive effect on ST depression, 1 hour ([1]; 10 mg/kg p.o.) | Preventive effect on ST depression, 5 hours ([1]; 10 mg/kg p.o.) | Preventive effect on ST depression, 7 hours ([1]; 30 mg/kg p.o.) | peak time (preventive effect on ST elevation) ([2]; 0.1 mg/kg) | ST elevation, administn. of M (8 μg) after administn. of test compd. (at peak time) ([2]; 0.1 mg/kg, * P < 0.05) | peak time (preventive effect on ST elevation) ([2]; 0.3 mg/kg) | ST elevation, administn. of M (8 μg) after administn. of test compd. (at peak time) [2, 4] | preventive effect on the ST elevation (in words) [2] | Peak time (time of maximum hypotensive effect) ([3]; 30 mg/kg) | maximum hypotensive effect (decrease compared with the initial blood pressure) ([3]; oral, 30 mg/kg) | time of maximum hypotensive effect ([3]; oral, 30 mg/kg) | also measured
O=C(CCCN1CCN(c2ccc(F)cc2)CC1)NC1c2ccccc2C=Cc2ccccc21 [79(3), 5-[4-[4-(4-fluorophenyl)-1-piperazinyl]butyrylamino]-5H-dibenzo[a,d]cycloheptene] | + | + | + | + | + | 5 min | +0.12 ± 0.02 ΔmV | 0.5 min | +0.04 ± 0.02 ΔmV | preventive effect on the ST elevation comparable to that of diltiazem hydrochloride |  |  |  | Preventive effect on ST depression, 5 hours ([1]; 3 mg/kg p.o.): -; Preventive effect on ST depression, 7 hours ([1]; 10 mg/kg p.o.): -; preventive effect on the ST depression (in words) [1]: more prolonged preventive effect on the ST depression than diltiazem hydrochloride; peak time (preventive effect on ST elevation) ([2]; 1.0 mg/kg): 0.5 min; ST elevation, administn. of M (8 μg) after administn. of test compd. (at peak time) ([2]; 1.0 mg/kg, ** P < 0.01): +0.08 ± 0.01 ΔmV; LD50 at 168 h (in vivo; ip, single intraperitoneal administration): > 1000 mg/kg; LD50 at 168 h (in vivo; single oral administration): > 4000 mg/kg
O=C(CCCN1CCN(c2ccc(F)cc2)CC1)NC1c2ccccc2CSc2cc(F)ccc21 (stereo not shown) [Example 42, 3-fluoro-11-[4[4-(4-fluorophenyl)-1-piperazinyl]butyrylamino]-6,11-dihydrodibenzo[b,e]thiepin] |  |  |  |  |  |  |  |  |  |  | 4 h | 12-14% | 4 to 5 h | 
O=C(CCCN1CCN(c2ccc(F)cc2)CC1)NC1c2ccccc2CS(=O)(=O)c2ccccc21 (stereo not shown) [Example 138, 11-[4-[4-(4-fluorophenyl)-1-piperazinyl]butyrylamino]-6,11-dihydrodibenzo[b,e]thiepin-5,5-dioxide] |  |  |  |  |  |  |  |  |  |  | 5 h | 12-14% | 4 to 5 h | 
Cc1ccc2c(c1)C(NC(=O)CCCN1CCN(c3ccc(F)cc3)CC1)c1ccccc1CS2 (stereo not shown) [2(3), 11-[4-[4-(4-fluorophenyl)-1-piperazinyl]butyrylamino]-2-methyl-6,11-dihydrodibenzo[b,e]thiepin] | - | - | + | + | + | 5 min | +0.19 ± 0.05 ΔmV | 0.5 min | +0.13 ± 0.02 ΔmV | preventive effect on the ST elevation comparable to that of diltiazem hydrochloride | 4 h | 12-14% | 4 to 5 h | Preventive effect on ST depression, 5 hours ([1]; 3 mg/kg p.o.): -; Preventive effect on ST depression, 7 hours ([1]; 3 mg/kg p.o.): -; Preventive effect on ST depression, 3 hours ([1]; 10 mg/kg p.o.): +; Preventive effect on ST depression, 7 hours ([1]; 10 mg/kg p.o.): -; Preventive effect on ST depression, 1 hour ([1]; 30 mg/kg p.o.): +; preventive effect on the ST depression (in words) [1]: more prolonged preventive effect on the ST depression than diltiazem hydrochloride
Cc1ccc2c(c1)C(NC(=O)CCCN1CCN(c3ccc(F)cc3)CC1)c1ccccc1CS2 (stereo not shown) [2(1), 11-[4-[4-(4-fluorophenyl)-1-piperazinyl]butyrylamino]-2-methyl-6,11-dihydrodibenzo[b,e]thiepin] |  |  |  |  |  |  |  |  |  |  |  |  |  | duration of antihypertensive activity (in words) [3]: longer duration of antihypertensive activity than that of the commercially available calcium antagonists
O=C(CCCN1CCN(c2ccc(F)cc2)CC1)NC1c2ccccc2CSc2ccccc21 (stereo not shown) [Example 1(1), 11-[4-[4-(4-fluorophenyl)-1-piperazinyl]butyrylamino]-6,11-dihydrodibenzo[b,e]thiepin] |  |  |  |  |  |  |  |  |  |  |  |  |  | duration of antihypertensive activity (in words) [3]: longer duration of antihypertensive activity than that of the commercially available calcium antagonists
O=C(CCCN1CCN(c2ccccc2)CC1)NC1c2ccccc2CSc2ccccc21 (stereo not shown) [6(1), 11-[4-(4-phenyl-1-piperazinyl)butyrylamino]-6,11-dihydrodibenzo[b,e]thiepin] |  |  |  |  |  | 0.5 min | +0.15 ± 0.05 ΔmV | 5 min | +0.07 ± 0.01 ΔmV | preventive effect on the ST elevation comparable to that of diltiazem hydrochloride |  |  |  | 
O=C(CCCN1CCN(c2ccc(F)cc2)CC1)NC1c2ccccc2C[S+]([O-])c2ccccc21 (single isomer, unassigned) [Example 136, 11-[4-[4-(4-fluorophenyl)-1-piperazinyl]butyrylamino]-6,11-dihydrodibenzo[b,e]thiepin-5-oxide-A] |  |  |  |  |  |  |  |  |  |  | 5 h | 12-14% | 4 to 5 h | 
COC(=O)C1=C(C)NC(C)=C(C(=O)OC)C1c1ccccc1[N+](=O)[O-] [Nifedipine, reference compound] |  |  |  |  |  | 20 min | +0.08 ± 0.02 ΔmV |  |  |  |  |  |  | Peak time (time of maximum hypotensive effect) ([3]; 3 mg/kg): 0.5 h; decrease compared with the initial blood pressure at 5 hours after dosing ([3]; oral): 7%; maximum hypotensive effect (decrease compared with the initial blood pressure) ([3]; oral, 3 mg/kg): 17%; time of maximum hypotensive effect ([3]; oral, 3 mg/kg): 0.5 h; Preventive effect on ST depression, 1 hour ([1]; 0.01 mg/kg p.o.): -; Preventive effect on ST depression, 3 hours ([1]; 0.01 mg/kg p.o.): -; Preventive effect on ST depression, 1 hour ([1]; 0.1 mg/kg p.o.): +; Preventive effect on ST depression, 3 hours ([1]; 0.1 mg/kg p.o.): -; Preventive effect on ST depression, 5 hours ([1]; 0.1 mg/kg p.o.): -; peak time (preventive effect on ST elevation) ([2]; 0.03 mg/kg): 10 min; ST elevation, administn. of M (8 μg) after administn. of test compd. (at peak time) ([2]; 0.03 mg/kg): +0.17 ± 0.02 ΔmV
COc1ccc([C@@H]2Sc3ccccc3N(CCN(C)C)C(=O)[C@@H]2OC(C)=O)cc1 [Diltiazem hydrochloride, reference compound] | - | - | + | - | - | 10 min | +0.15 ± 0.03 ΔmV | 10 min | +0.06 ± 0.02 ΔmV |  | 0.333 h |  |  | Peak time (time of maximum hypotensive effect) ([3]; 50 mg/kg): 0.333 h; decrease compared with the initial blood pressure at 5 hours after dosing ([3]; oral): 3%; reduction of blood pressure (in words) ([3]; oral, 30 mg/kg): did not reduce significantly blood pressures; maximum effect (decrease compared with the initial blood pressure) ([3]; oral, 50 mg/kg): 13%; time of maximum effect ([3]; oral, 50 mg/kg): 20 min; Preventive effect on ST depression, 3 hours ([1]; 10 mg/kg p.o.): +; Preventive effect on ST depression, 1 hour ([1]; 30 mg/kg p.o.): +; Preventive effect on ST depression, 5 hours ([1]; 30 mg/kg p.o.): +; peak time (preventive effect on ST elevation) ([2]; 1.0 mg/kg): 5 min; ST elevation, administn. of M (8 μg) after administn. of test compd. (at peak time) ([2]; 1.0 mg/kg, ** P < 0.01): +0.09 ± 0.02 ΔmV
